Publication PMC6804229, “Cytotoxic Xanthones from Hypericum stellatum, an Ethnomedicine in Southwest China” (Molecules, 2019)
Where two headings read alike, the source gives them in different places.

Key:
[1] = tested on: PLC/PRF/5; assay: MTS cytotoxicity assay, PLC/PRF/5
Protocol: (§1) The isolated compounds were tested in vitro for their cytotoxicity to five human liver carcinoma cell lines (SMMC-7721, Huh-7, HepG2, SK-HEP-1, PLC/PRF/5) and the immortalized noncancerous human liver cell (LO2), in a 3-(4,5-dimethylthiazol-2-yl)-5(3-carboxymethoxyphenyl)2-(4-sulfopheny)-2H-tetrazolium (MTS; Promega, Beijing, China) assay [31]. In general, cells in the log phase of their cycle were seeded in 96-well plates (4000–5000 cells/well, NEST Biotechnology, Wuxi, China) in a 100-μL volume. After 12 h of incubation at 37 °C, each test compound was added. The cancer cell lines were exposed to the test compounds at five concentrations (0.064, 0.32, 1.6, 8, and 40 μM) in triplicate with cisplatin (Meilunbio, CAS No. 15663-27-1) and Taxol (Meilunbio, CAS No. 33069-62-4) as the positive control. After incubation for 48 h at 37 °C, 20 μL of MTS solution and 100 μL DMEM were added into the well. The incubation continued for another 1–4 h.

[2] = tested on: Huh-7; assay: MTS cytotoxicity assay, Huh-7
Protocol: as §1

[3] = tested on: five human liver carcinoma cell lines; assay: cells; format: cell-based
Protocol: The incubation continued for another 1–4 h.

[4] = tested on: LO2
Description: (§2) Considering its purported medicinal value for the treatment of liver disease, we tested the cytotoxic activities of ten xanthones isolated from H. stellatum against five human liver carcinoma cell lines (SMMC-7721, Huh-7, HepG2, SK-HEP-1, PLC/PRF/5), as well as the immortalized non-cancerous human liver cell (LO2) by the MTS method, in vitro, with cisplatin (CAS No. 15663-27-1, Meilunbio, Dalian, China) and Taxol (CAS No. 33069-62-4, Meilunbio, Dalian, China) as positive controls.
as §1

[5] = tested on: HepG2; assay: MTS cytotoxicity assay, HepG2
Protocol: as §1

[6] = tested on: SMMC-7721; assay: MTS cytotoxicity assay, SMMC-7721
Protocol: as §1

[7] = tested on: SK-HEP-1; assay: MTS cytotoxicity assay, SK-HEP-1
Protocol: as §1

[8] = tested on: LO2; assay: cells; settings: Homo sapiens, L02, 48 h, read-out: IC50 ± SD
Description: as §2, §1

[9] = tested on: PKC; parameters: method as in PMID 26245668; settings: synthesized isojacareubin; cited from earlier work
[10] = tested on: SK-HEP-1
Protocol: as §1

[11] = tested on: PLC/PRF/5
Protocol: as §1

[12] = tested on: HepG2
Protocol: as §1

[13] = tested on: SMMC-7721
Protocol: as §1

[14] = tested on: Huh-7
Protocol: as §1

[15] = read-out: IC50 ± SD, PLC/PRF/5, MTS, 48 h, mean of three independent experiments
[16] = read-out: IC50 ± SD, Huh-7, MTS, 48 h, mean of three independent experiments
[17] = range over five human liver carcinoma cell lines, read-out: IC50 value range
[18] = read-out: IC50 ± SD, LO2 human normal liver cell line, MTS, 48 h, mean of three independent experiments
[19] = read-out: IC50 ± SD, HepG2, MTS, 48 h, mean of three independent experiments
[20] = read-out: IC50 ± SD, SMMC-7721, MTS, 48 h, mean of three independent experiments
[21] = read-out: IC50 ± SD, SK-HEP-1, MTS, 48 h, mean of three independent experiments
[22] = Homo sapiens, PLC-PRF-5, 48 h, read-out: IC50 ± SD
[23] = Homo sapiens, Huh-7, 48 h, read-out: IC50 ± SD
[24] = Homo sapiens, HepG2, 48 h, read-out: IC50 ± SD
[25] = Homo sapiens, HepG2, read-out: cytotoxic activity (class)
[26] = Homo sapiens, SMMC-7721, 48 h, read-out: IC50 ± SD
[27] = Homo sapiens, SK-HEP1, 48 h, read-out: IC50 ± SD
[28] = Homo sapiens, SMMC-7721, read-out: cytotoxic activity (class)
[29] = Homo sapiens, SK-HEP1, read-out: cytotoxic activity (class)
[30] = Homo sapiens, PLC-PRF-5, read-out: cytotoxic activity (class)
[31] = Homo sapiens, Huh-7, read-out: cytotoxic activity (class)

Compound	IC50 [1, 22] [µM]	IC50 [2, 23] [µM]	IC50 [5, 24] [µM]	IC50 [5, 25] [µM]	IC50 [6, 26] [µM]	IC50 [7, 27] [µM]	IC50 [8] [µM]	other results
N.N.[Cl][Pt][Cl] [Cisplatin, cisplatin, reference compound]								IC50 [1, 15]: 10.7 ± 0.8 µM; IC50 [2, 16]: 16 ± 0.95 µM; IC50 [3, 17]: 4.47 to 20.6 µM; IC50 [4, 18]: 13.9 ± 0.87 µM; IC50 [5, 19]: 10.3 ± 0.5 µM; IC50 [6, 20]: 4.47 ± 0.27 µM; IC50 [7, 21]: 20.6 ± 1.03 µM
COc1cc2oc3ccccc3c(=O)c2cc1O [Compound 1, 2-hydroxy-3-methoxyxanthone]	> 40	> 40	10.2 ± 0.12	10 to 40	> 40	> 40	14.5 ± 0.95	
O=c1c2c(O)cccc2oc2cc(O)cc(O)c12 [Compound 2, 1,3,8-trihydroxyxanthone]	> 40	> 40	> 40		15.2 ± 0.27	> 40	> 40	IC50 [6, 28]: 10 to 40 µM
O=c1c2cc(O)c(O)cc2oc2cc(O)cc(O)c12 [Compound 3, 1,3,6,7-tetrahydroxylxanthone]	> 40	> 40	> 40		> 40	> 40		
O=c1c2cc(O)ccc2oc2cc(O)cc(O)c12 [Compound 4, 1,3,7-trihydroxyxanthone]	> 40	> 40	22.6 ± 1.43	10 to 40	> 40	> 40	> 40	
COc1cc(O)cc2oc3cc(O)c(O)cc3c(=O)c12 [Compound 5, 3,6,7-trihydroxy-1-methoxyxanthone]	> 40	> 40	> 40		> 40	> 40		
COc1cc2oc3cc(O)cc(O)c3c(=O)c2cc1O [Compound 7, 1,3,7-trihydroxy-6-methoxyxanthone]	> 40	> 40	> 40		28.2 ± 0.89	37.1 ± 0.97	12.1 ± 0.14	IC50 [6, 28]: 10 to 40 µM; IC50 [7, 29]: 10 to 40 µM
C=C(C)[C@@H]1Cc2c(cc(O)c3c(=O)c4ccc(O)c(O)c4oc23)OC1C=C(C)C (some centres unmarked) [Compound 9, Hypxanthone B]	30.8 ± 0.38	25.8 ± 2.04	11.93 ± 0.1	10 to 40	8.26 ± 0.57	> 40	> 40	IC50 [1, 30]: 10 to 40 µM; IC50 [2, 31]: 10 to 40 µM; IC50 ([3]; Homo sapiens, read-out: cytotoxicity (class)): 10 to 40 µM
C=C(C)C(CC=C(C)C)Cc1c(O)cc(O)c2c(=O)c3ccc(O)c(O)c3oc12 (centres unmarked) [Compound 10, calycinoxanthon D]	24.9 ± 0.46	16.6 ± 0.24	21.33 ± 0.16	10 to 40	6.27 ± 0.16	31.1 ± 2.67	12.2 ± 0.25	IC50 [1, 30]: 10 to 40 µM; IC50 [2, 31]: 10 to 40 µM; IC50 [7, 29]: 10 to 40 µM
CC(=O)O[C@H]1C(=O)[C@@]2(C)[C@H]([C@H](OC(=O)c3ccccc3)[C@]3(O)C[C@H](OC(=O)[C@H](O)[C@@H](NC(=O)c4ccccc4)c4ccccc4)C(C)=C1C3(C)C)[C@]1(OC(C)=O)CO[C@@H]1C[C@@H]2O [Taxol, reference compound]	< 0.01	0.11 ± 0.011	< 0.01		0.18 ± 0.03	< 0.01	< 0.01	
isojacareubin [Compound 6]								inhibition of PKC [9]: potent inhibitor; IC50 [1, 15]: 11.8 ± 0.56 µM; IC50 [2, 16]: 9.09 ± 0.38 µM; IC50 [10]: < 10 µM; IC50 [3, 17]: 1.41 to 11.8 µM; IC50 [4]: < 10 µM; IC50 [4, 18]: 2.03 ± 0.04 µM; IC50 [5, 19]: 2.4 ± 0.02 µM; IC50 [11]: 10 to 40 µM; IC50 [12]: < 10 µM; IC50 [6, 20]: 1.41 ± 0.03 µM; IC50 [7, 21]: 9.2 ± 0.21 µM; IC50 [13]: < 10 µM; IC50 [14]: < 10 µM
